This passage reports IC50 results from patent EP0167954A2, “1-Hydroxy-cytorhodines, a microbiological method for their preparation and their use as cytostatic agents” (HOECHST AKTIENGESELLSCHAFT, priority 1984, dated 1986).

In assay [1] the test system is L1210 Leukämiezellen der Maus. In words: Proliferation assay (incorporation of C14-labelled thymidine). It is filed as cell-based. The settings on record: Mus musculus. An excerpt:
(§1) Die Bestimmung der zytostatischen Wirksamkeit der hier beschriebenen Verbindungen erfolgte an L1210 Leukämiezellen der Maus. Im einzelnen wurden folgende Testsysteme verwendet:
Bei dieser Methode wird in vitro nach Inkubation der Zellen mit unterschiedlichen Konzentrationen der Testsubstanz ermittelt, inwieweit die Zellen radioaktive DNA-Vorläufer (z.B. C14 markiertes Thymidin) einbauen können. Unbehandelte L1210 Zellen werden den gleichen Testbedingungen unterworfen und dienen als Kontrolle. Im folgenden ist die Methode kurz beschrieben.
L1210 Zellen in exponentieller Wachstumsphase (5 x 10^3/ml in RPMI 1640) werden in einer Mikrotiterplatte 72 Stunden mit unterschiedlichen Konzentrationen der Testsubstanz inkubiert (37°C, 5 % C021 95 % relative Luftfeuchte). Kontrolle bestehen aus Zellen, die lediglich mit frischem Medium inkubiert werden. Alle Bestimmungen werden als 4fach Bestimmungen durchgeführt. Nach 65 Stunden werden 50 µl C-1 14 Thymidin (1,5 µc/ml) zugegeben, um die DNA der Zelle radioaktiv zu markieren. Nach 7 Stunden Inkubation werden die Zellen abgesaugt, die DNA mit 5%iger Trichloressigsäure gefällt und nacheinander mit Wasser bzw. Methanol gewaschen.
Nach Trocknung bei 50°C wird die in die DNA eingebaute Radioaktivität nach Zugabe von 5 ml Szintillationsflüssigkeit ermittelt.
Die Ergebnisse werden angegeben als Verhältnis des Szintillationsindex nach Inkubation mit der Testsubstanz in Prozent der unbehandelten Kontrolle. Aus den so erhaltenen Meßwerten wird die Dosiswirkungskurve ermitelt und graphisch die IC50, d.h. die Konzentration, die unter Testbedingungen den Einbau von radioaktivem Thymidin um 50 % gegenüber der Kontrolle erniedrigt, ermittelt. Die IC50 Werte der hier beschriebenen Verbindungen im Vergleich zu Adriamycin (ADM) werden in der Tabelle 1 zusammengefaßt.

The subject of a further assay is L1210 Leukämiezellen. The experiment in a line: Colony formation of L1210 leukaemia cells in soft agar. It counts as cell-based, Maus. The settings on record: Mus musculus.
From the text: as §1
b) Koloniebildung von L1210 Leukämiezellen in soft agar.
Diese Methode dient zum Nachweis eines Einflusses der Testsubstanzen auf das Wachstumsverhalten der Zellen über mehrere Generationen (bei einer Zellzykluszeit von 10-12 Stunden werden in der Testzeit von 7 Tagen ca. 14 aufeinanderfolgende Generationen beobachtet).
Zytostatisch wirksame Substanzen bewirken in diesem Test eine Reduktion der zu beobachtenden Koloniezahl gegenüber einer unbehandelten Kontrolle. Im einzelnen wird der Test wie folgt durchgeführt:
500 Leukämiezellen pro Platte werden mit unterschiedlichen Konzentrationen von Testsubstanz 1 Stunde bei 37°C inkubiert. Anschließend werden die Zellen zweimal mit McCoy5A Medium gewaschen und schließlich in Petrischalen nach Zusatz von 0,3 % Agar ausgegossen. Kontrollen werden lediglich mit frischem Medium inkubiert. Anstelle der lstündigen Inkubation werden in manchen Fällen unterschiedliche Konzentrationen und Testsubstanz der oberen Agarschicht zugemischt, um so eine kontinuierliche Exposition der Zellen über die gesamte Inkubationszeit zu erreichen. Nach Erstarren des Agars werden die Platten im Brutschrank 7 Tage bei 37°C inkubiert (5 % C02, 95 % relative Luftfeuchtigkeit). Anschließend wird die Anzahl der entstandenen Kolonien mit einem Durchmesser 60 p gezählt. Die Ergebnisse werden angegeben als Koloniezahl in behandelten Agarplatten in Prozent der unbehandelten Kontrolle. Aus der so erhaltenen Dosiswirkungskurve wird die IC50 als Maß für die Wirksamkeit der Substanz ermittelt. Die Ergebnisse für die hier beschriebenen Verbindungen im Vergleich zu Adriamycin sind in der Tabelle 1 zusammengefaßt.

[2] abbreviates: L1210, read-out: Proliferationstest IC50.
Where [3] appears, read: L1210, 168 h, read-out: Koloniebildungstest IC50, 7 Tage Inkubation.
[4] abbreviates: L1210, read-out: Koloniebildungstest IC50, 1 Stunde Inkubation.

≈ marks a conversion by molar mass, not a printed value. Read-outs that look alike come from different tables or passages of the source.

Take `CCC1(O)CC(OC2CC(N(C)C)C(OC3CCC(OC4CCC(O)C(C)O4)C(C)O3)C(C)O2)c2c(O)c3c(c(O)c2C1OC1CC(N(C)C)C(OC2CCC(OC4CCC(O)C(C)O4)C(C)O2)C(C)O1)C(=O)c1c(O)ccc(O)c1C3=O` (stereo not drawn) [1-OH-Cytorhodin A, 1-Hydroxy-Cytorhodin A]: the IC50 in assay [1] (setting [2]) came out at 3 ng/mL (≈ 2.56 nM); in the assay with L1210 Leukämiezellen (setting [3]), 2.8 ng/mL (≈ 2.39 nM); in the assay on L1210 Leukämiezellen (setting [4]), 26 ng/mL (≈ 22.2 nM).
`CCC1(O)CC(OC2CC(N(C)C)C(OC3CCC(OC4C=CC(=O)C(C)O4)C(C)O3)C(C)O2)c2c(O)c3c(c(O)c2C1OC1CC(N(C)C)C(OC2CCC(OC4CCC(O)C(C)O4)C(C)O2)C(C)O1)C(=O)c1c(O)ccc(O)c1C3=O` (stereo not drawn) [1-OH-Cytorhodin V, 1-Hydroxy-Cytorhodin V]: the IC50 in assay [1] (L1210 cells, 72 h incubation with test substance, C14 thymidine added after 65 h, IC50 read graphically, read-out: Proliferationstest IC50) came out at 2.8 ng/mL (≈ 2.39 nM); in the assay with L1210 Leukämiezellen (168 h, L1210 cells in soft agar, continuous exposure (substance mixed into upper agar layer), 7 days at 37°C, read-out: Koloniebildungstest IC50, 7 Tage Inkubation), 0.45 ng/mL (≈ 0.385 nM); in the assay with L1210 Leukämiezellen (L1210 cells, 1 h incubation with substance at 37°C, washed, then 7 days in soft agar, read-out: Koloniebildungstest IC50, 1 Stunde Inkubation), 2.4 ng/mL (≈ 2.05 nM).
On to `COc1cccc2c1C(=O)c1c(O)c3c(c(O)c1C2=O)C[C@@](O)(C(=O)CO)C[C@@H]3O[C@H]1C[C@H](N)[C@H](O)[C@H](C)O1` [ADM, Adriamycin, reference compound], for which the values for the IC50 (in assay [1] (setting [2]); in the assay with L1210 Leukämiezellen (setting [3]); with L1210 Leukämiezellen (setting [4])) were 6 ng/mL (≈ 11 nM), 22 ng/mL (≈ 40.5 nM) and 44 ng/mL (≈ 81 nM), respectively.
